Assay results published in patent US20230146675A1, “PYRIMIDO[5,4-d]PYRIMIDINE DERIVATIVES AS ENT INHIBITORS FOR THE TREATMENT OF CANCERS, AND COMBINATION THEREOF WITH ADENOSINE RECEPTOR ANTAGONISTS” (ITEOS BELGIUM SA, priority 2020, published 2023).

Assays:
[1] = target: T1, human ENT1 (Homo sapiens, UniProt Q99808); experiment: ENT1 binding assay (competition with Sahenta-DY647 on JAR cells); parameters: JAR cells expressing ENT1 were bought from ATCC; host or cells: JAR cells; conditions: binned IC50
T1 sequence (Q99808 1-456): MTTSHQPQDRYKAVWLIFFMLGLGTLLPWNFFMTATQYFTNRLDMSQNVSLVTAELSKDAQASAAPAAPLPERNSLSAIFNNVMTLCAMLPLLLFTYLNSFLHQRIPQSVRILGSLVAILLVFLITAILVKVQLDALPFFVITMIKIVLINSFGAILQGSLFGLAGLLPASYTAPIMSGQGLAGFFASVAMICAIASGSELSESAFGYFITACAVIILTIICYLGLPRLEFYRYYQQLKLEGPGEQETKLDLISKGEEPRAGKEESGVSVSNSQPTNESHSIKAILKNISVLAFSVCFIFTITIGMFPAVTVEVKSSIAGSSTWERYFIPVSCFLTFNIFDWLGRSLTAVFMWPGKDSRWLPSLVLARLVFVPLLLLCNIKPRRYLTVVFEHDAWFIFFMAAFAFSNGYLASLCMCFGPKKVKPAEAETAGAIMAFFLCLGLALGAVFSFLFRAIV
How it was run: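 JAR cells were incubated with test compounds and the fluorescent ligand Sahenta-DY647 in competition. Plates were washed twice by centrifugation (4 min, 400 rcf, 4 °C). Binding potency was derived from the final fluorescence.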

[2] = target: T2, Human phosphodiesterase-7A1 (Homo sapiens, UniProt Q13946); experiment: PDE7A1 (h) assay; type: biochemical
T2 construct: host or cells: Sf9 cells
Description: The test compound (compound 72), reference compound or water (control) were added to a buffer containing 40 mM Tris/HCl (pH 7.4), 8 mM MgCl2 and 1.7 mM EGTA/NaOH, 1.8 μM cAMP and 1 μCi [3H]cAMP. Thereafter, the reaction was initiated by addition of the enzyme (about 2 ng) and the mixture was incubated for 15 min at 22° C. For basal control measurements, the enzyme was omitted from the reaction mixture. Following incubation SPA beads were added. After 30 min at 22° C. under shaking, the amount of [3H]5′AMP was quantified with a scintillation counter (MicroBeta, Perkin Elmer). The results were expressed as a percent inhibition of the control enzyme activity. The standard inhibitory reference compound was EHNA, which was tested in each experiment at several concentrations to obtain an inhibition curve from which its IC50 value was calculated. • Human phosphodiesterase-7A1 quantified by measuring the formation of 5′AMP from cAMP using a human recombinant enzyme expressed in Sf9 cells
(§1) The test compound (compound 72), reference compound or water (control) were added to a buffer containing 40 mM Tris/HCl (pH 7.4) and 8 mM MgCl2, 63 nM cAMP and 0.035 μCi [3H]cAMP. […] After 30 min at 22° C. under shaking, the amount of [3H]5′AMP was quantified with a scintillation counter (MicroBeta, Perkin Elmer). The results were expressed as a percent inhibition of the control enzyme activity. […]

[3] = target: T3, Human phosphodiesterase-4D2 (Homo sapiens, UniProt Q08499); experiment: PDE4D2 (h) assay; type: biochemical
T3 construct: host or cells: Sf9 cells
Description: The test compound (compound 72), reference compound or water (control) were added to a buffer containing 40 mM Tris/HCl (pH 7.4), 8 mM MgCl2 and 1.7 mM EGTA/NaOH, 450 nM cAMP and 0.25 μCi [3H]cAMP. Thereafter, the reaction was initiated by addition of the enzyme (about 1.2 U) and the mixture was incubated for 20 min at 22° C. For basal control measurements, the enzyme was omitted from the reaction mixture. Following incubation SPA beads were added. After 30 min at 22° C. under shaking, the amount of [3H]5′AMP was quantified with a scintillation counter (MicroBeta, Perkin Elmer). The results were expressed as a percent inhibition of the control enzyme activity. The standard inhibitory reference compound was Ro 20-1724, which was tested in each experiment at several concentrations to obtain an inhibition curve from which its IC50 value was calculated. • Human phosphodiesterase-4D2 quantified by measuring the formation of 5′AMP from cAMP using a human recombinant enzyme expressed in Sf9 cells.
as §1, with “450” for “63”, “0.0125” for “0.035”, “(Topcount, Packard).” for “(MicroBeta, Perkin Elmer).”

T3 sequence (Q08499 303-809 limits assumed): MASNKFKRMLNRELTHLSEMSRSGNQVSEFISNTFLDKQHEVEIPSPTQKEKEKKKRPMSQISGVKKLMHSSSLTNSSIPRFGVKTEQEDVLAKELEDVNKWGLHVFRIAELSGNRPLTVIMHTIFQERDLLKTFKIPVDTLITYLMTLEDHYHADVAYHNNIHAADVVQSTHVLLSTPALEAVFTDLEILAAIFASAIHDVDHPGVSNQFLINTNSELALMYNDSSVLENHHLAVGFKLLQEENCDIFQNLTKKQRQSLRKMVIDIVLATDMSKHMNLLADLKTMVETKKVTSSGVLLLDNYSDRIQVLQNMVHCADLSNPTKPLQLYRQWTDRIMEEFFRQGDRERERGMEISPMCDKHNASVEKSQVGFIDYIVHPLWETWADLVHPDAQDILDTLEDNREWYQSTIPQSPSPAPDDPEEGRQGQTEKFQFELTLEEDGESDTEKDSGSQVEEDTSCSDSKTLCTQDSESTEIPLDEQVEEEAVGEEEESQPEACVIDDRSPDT
T2 sequence (Q13946 whole entry): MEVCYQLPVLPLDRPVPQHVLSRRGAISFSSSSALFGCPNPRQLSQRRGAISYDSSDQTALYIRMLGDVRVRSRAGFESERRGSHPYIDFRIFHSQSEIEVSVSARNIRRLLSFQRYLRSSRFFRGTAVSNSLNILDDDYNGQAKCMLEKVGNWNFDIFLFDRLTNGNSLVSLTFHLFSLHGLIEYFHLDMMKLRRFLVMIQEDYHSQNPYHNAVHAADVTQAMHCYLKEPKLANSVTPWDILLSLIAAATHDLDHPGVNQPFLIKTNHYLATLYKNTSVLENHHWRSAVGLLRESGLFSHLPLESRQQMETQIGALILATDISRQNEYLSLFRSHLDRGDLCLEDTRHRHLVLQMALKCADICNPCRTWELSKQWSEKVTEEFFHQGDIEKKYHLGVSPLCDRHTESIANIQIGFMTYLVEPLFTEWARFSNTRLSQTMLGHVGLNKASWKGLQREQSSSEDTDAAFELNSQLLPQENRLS

IC50 [1]: < 100 nM
IC50 [2]: > 10 µM
IC50 [3]: 1 to 10 µM
SMILES: COCCN(CCOC)c1nc(N2CCN(C)C(=O)C2)c2nc(N(CCOC)CCOC)nc(N3CCC(OC)CC3)c2n1 [Compound 72, 4-(2,6-bis(bis(2-methoxyethyl)amino)-8-(4-methoxypiperidin-1-yl)pyrimido[5,4-d]pyrimidin-4-yl)-1-methylpiperazin-2-one]
